Converted amounts (≈) assume the structure as drawn.
Tests used:
E. coli = details: cited from earlier work
Bacillus subtilis = assay: Resazurin microtiter MIC assay, activity against Bacillus subtilis; assay type: cell-based
Protocol: Bacillus subtilis ATCC 11775 was plated on agar from a 20% glycerol stock solution stored at −80° C. Inoculated plates were then incubated at 37° C. under aerobic conditions for 16 hours. Single cultures were transferred to Nutrient Broth (NB) and cultured for 16 hours under the same conditions. […] Second passage cultures were standardized to O.D.−600 nm=1.0. The resazurin microtiter assay procedure described by Palomino and coworkers is used for assessing antimicrobial activity (Palomino, 2002, Antimicrob. Agents Chemother. 46:2720-2722). The assay is performed in LB broth. Resazurin sodium salt powder is prepared in distilled water and filter sterilized at […] (w/v) for MIC assays and at 0.01%8.55). (w/v) for single concentration assays. Compounds are first screened in MIC assays to assess whether growth inhibition is dependent on inhibitor concentration. The plates are incubated for 30 min under aerobic conditions. Growth controls containing no inhibitory compound, sterility controls without inoculation, and controls containing a known antibiotic, chloramphenicol, are also included. The innoculum was prepared from second passage cultures in Nutrient Broth (NB) and standardized to O.D.−600 nm=1.0 and the wells inoculated with a 1:20 dilution. Serial two-fold dilutions of each compound in 100 μL of medium are prepared directly in 96 well plates at concentrations ranging from 250 μM to 7 μM. After incubation 30 μL of resazurin solution is added to each well and incubated for 30 min. A change in color from blue to pink indicates reduction of resazurin, and therefore bacterial growth. Minimum inhibitory concentration (MIC) was determined as the lowest drug concentration that prevented the color change from blue to pink. Inhibition was quantified by observation of color change. Further studies were carried out at a single inhibitor concentration of 250 μM. The plates were incubated for 4 h under aerobic conditions with the same controls. After incubation 30 μL of resazurin solution was added to each well and incubated for 60 min. Inhibition was quantified by fluorescence readings from plate reader SAFIRE, Firmware: V 2.20 08/02 Safire. Excitation wavelength set to 560 nm, emission wavelength set to 590 nm. Well containing dye and non-inoculated cells was used as gain set. Plates are held at 37° C. and fluorescence measurements are taken at 0, 5, 10, 20, 30, and 60 min after addition of dye. Lower fluorescence values correlate to greater degrees of inhibition. Compounds are tested […] for their capacity to inhibit B. subtilis growth. […] Briefly, second-passage bacteria are incubated with inhibitor in a 96-well plate for four hours, then resazurin dye is added and color/fluorescence change is observed. […] Resorufin is also fluorescent and can be measured by a plate-reader.

Streptococcus pneumoniae = assay: Resazurin microtiter MIC assay, activity against Streptococcus pneumoniae; assay type: cell-based
Protocol: The resazurin microtiter assay procedure described by Palomino and coworkers is used for assessing antimicrobial activity (Palomino, 2002, Antimicrob. Agents Chemother. 46:2720-2722). The assay is performed in LB broth. Resazurin sodium salt powder is prepared in distilled water and filter sterilized at […] (w/v) for MIC assays and at 0.01%8.55). (w/v) for single concentration assays. Compounds are first screened in MIC assays to assess whether growth inhibition is dependent on inhibitor concentration. The plates are incubated for 30 min under aerobic conditions. Growth controls containing no inhibitory compound, sterility controls without inoculation, and controls containing a known antibiotic, chloramphenicol, are also included. The innoculum was prepared from second passage cultures in Nutrient Broth (NB) and standardized to O.D.−600 nm=1.0 and the wells inoculated with a 1:20 dilution. Serial two-fold dilutions of each compound in 100 μL of medium are prepared directly in 96 well plates at concentrations ranging from 250 μM to 7 μM. After incubation 30 μL of resazurin solution is added to each well and incubated for 30 min. A change in color from blue to pink indicates reduction of resazurin, and therefore bacterial growth. Minimum inhibitory concentration (MIC) was determined as the lowest drug concentration that prevented the color change from blue to pink. Inhibition was quantified by observation of color change. Further studies were carried out at a single inhibitor concentration of 250 μM. The plates were incubated for 4 h under aerobic conditions with the same controls. After incubation 30 μL of resazurin solution was added to each well and incubated for 60 min. Inhibition was quantified by fluorescence readings from plate reader SAFIRE, Firmware: V 2.20 08/02 Safire. Excitation wavelength set to 560 nm, emission wavelength set to 590 nm. Well containing dye and non-inoculated cells was used as gain set. Plates are held at 37° C. and fluorescence measurements are taken at 0, 5, 10, 20, 30, and 60 min after addition of dye. Lower fluorescence values correlate to greater degrees of inhibition.

SMILES	MIC (Bacillus subtilis)	MIC (Streptococcus pneumoniae; 60 uM)	MIC (Streptococcus pneumoniae; same MIC in mass units)	effect on the viability of E. coli (E. coli)
CC1=N[C@@H]2[C@@H](O)[C@H](O)[C@@H](CO)O[C@@H]2S1 [NAG-thiazoline]	–	–	–	no effect
CCCCNC(=O)C(C1CCCCC1)N(C(=O)c1ccccc1OC)C1CCCCC1 (stereo not drawn) [qgka]	50 µM (≈ 21.4 µg/mL)	–	–	–
CCCCNC(=O)C(C1CCCCC1)N(C(=O)c1ccccc1SC)c1ccccc1 (stereo not drawn) [sgqa]	–	50 µM	21.2 µg/mL	–
C#CCN(C(=O)c1ccccc1C(F)(F)F)C(C(=O)NCCCC)C1CCCCC1 (stereo not drawn) [vgba]	–	50 µM	21.1 µg/mL	–

Further lines, with some results ahead:

MIC (Bacillus subtilis)	MIC (Streptococcus pneumoniae; 60 uM)	MIC (Streptococcus pneumoniae; same MIC in mass units)	SMILES	effect on the viability of E. coli (E. coli)
50 µM (≈ 23.3 µg/mL)	–	–	CCCCNC(=O)C(C1CCCCC1)N(C(=O)c1ccccc1C(F)(F)F)C1CCCCC1 (stereo not drawn) [vgka]	–
50 µM (≈ 24.6 µg/mL)	5 µM	2.46 µg/mL	O=C(NC1CCCCC1)C(C1CCCCC1)N(C(=O)c1ccccc1C(F)(F)F)C1CCCCC1 (stereo not drawn) [vgkc]	–
50 µM (≈ 20.6 µg/mL)	–	–	CCCCNC(=O)C(C1CCCCC1)N(C(=O)c1ccccc1C)C1CCCCC1 (stereo not drawn) [wgka]	–
–	50 µM	20.3 µg/mL	CCCCNC(=O)C(C1CCCCC1)N(C(=O)c1ccccc1C)c1ccccc1 (stereo not drawn) [wgqa]	–
–	5 µM	2.33 µg/mL	CCCCNC(=O)C(C1CCCCC1)N(C(=O)c1ccccc1OC(C)=O)C1CCCCC1 (stereo not drawn) [ygka]	–
